Measured values as given in patent US4161527A, “Antibiotic compositions” (priority 1976, dated 1979).
Where a name gives a salt, the structure may show the parent alone.

Key:
[1] = Dissolution time on addition of 3 ml. of distilled water; type: physicochemical; settings: shaken vigorously
Method: To each of the Samples was added 3 ml. of distilled water and the times of dissolution were measured. […] Provided that, in dissolution, Samples A and B were allowed to stand, while Sample C was shaken vigorously.

[2] = Color of the Samples 3 hours after dissolution; type: physicochemical; settings: 3 ml. of distilled water
[3] = tested on: Staphylococcus aureus FDA 209 P; test: Antibacterial spectrum (agar dilution), M.I.C.; type: cell-based; settings: FDA209
[4] = tested on: Staphylococcus aureus 1840; test: Antibacterial spectrum (agar dilution), M.I.C.; type: cell-based
[5] = tested on: Escherichia coli NIHJ JC-2; test: Antibacterial spectrum (agar dilution), M.I.C.; type: cell-based; settings: NIHJJC2
Escherichia coli 0-111 = test: Antibacterial spectrum (agar dilution), M.I.C.; type: cell-based; settings: 0111
Text: (§1) The antibacterial potency (M.I.C.) and toxicity of TTC
(§2) (1) Antibacterial spectrum (agar dilution)

Escherichia coli T-7 = test: Antibacterial spectrum (agar dilution), M.I.C.; type: cell-based; settings: T7
Text: as §1, §2

Krebsiella pneumoniae DT = test: Antibacterial spectrum (agar dilution), M.I.C.; type: cell-based
[6] = tested on: Proteus vulgaris IFO 3988; test: Antibacterial spectrum (agar dilution), M.I.C.; type: cell-based; settings: IFO3988
[7] = tested on: Proteus morganii IFO 3848; test: Antibacterial spectrum (agar dilution), M.I.C.; type: cell-based; settings: Morganella morganii, IFO3848
[8] = tested on: Gram-positive and Gram-negative bacteria; type: cell-based
[9] = Storage stability (general statement); type: physicochemical
[10] = tested on: local tissue at the sites of injection; test: Local reactions at the sites of intramuscular injection (general statement); type: in vivo; settings: intramuscularly injected
[11] = Dissolution in a solvent such as distilled water (general statement); type: physicochemical

Compound	Dissolution time [1]	Color 3 hours after dissolution [2]	MIC [3]	MIC [4]	MIC [5]	MIC (Escherichia coli 0-111)	MIC (Escherichia coli T-7)	MIC (Krebsiella pneumoniae DT)	MIC [6]	MIC [7]	antibacterial activity [8]	stability in storage [9]	local reactions at the sites of injection [10]	dissolution [11]
CN(C)CCn1nnnc1SCC1=C(C(=O)O)N2C(=O)[C@@H](NC(=O)Cc3csc(=N)[nH]3)[C@H]2SC1 [TTC hydrate, 7β-[2-(2-imino-4-thiazolin-4-yl)acetamido]-3-{1-[2-(N,N-dimethylamino)ethyl]-1-H-tetrazol-5-yl}thiomethyl-3-cephem-4-carboxylic acid dihydrochloride hydrate]	180 s	Reddish yellow												
CN(C)CCn1nnnc1SCC1=C(C(=O)O)N2C(=O)[C@@H](NC(=O)Cc3csc(N)n3)[C@H]2SC1.Cl.Cl [TTC, 7β-[2-(2-imino-4-thiazolin-4-yl)acetamido]-3-{1-[2-(N,N-dimethylamino)ethyl]-1H-tetrazol-5-yl}thiomethyl-3-cephem-4-carboxylic acid dihydrochloride]			0.39 µg/mL	0.78 µg/mL	0.2 µg/mL	0.05 µg/mL	1.56 µg/mL	0.1 µg/mL	1.56 µg/mL	0.39 µg/mL	strong antibacterial activity against Gram-positive and Gram-negative bacteria	stable in storage	necrosis of muscle cells, discoloration or brown degeneration of the local tissue, hyperemia and other local reactions at the sites of injection	rather slow to be dissolved
